From patent US20080241816A1, “Method for Stabilizing Oxidizable Color Developing Reagent” (DAIICHI PURE CHEMICALS CO., LTD, priority 2004, published 2008)

Assays:
[1] = Stabilization Test 1 for TPM-PS (storage at 37° C., absorbance at 600 nm); format: physicochemical; details: for absorbance at 600 nm, 2-Week storage / absorbance at 600 nm, 3-Week storage / absorbance at 600 nm, Time 0: 37° C.; for absorbance at 600 nm, Time 0: time 0 (start)
Method: TPM-PS was dissolved in each of the aqueous solutions described below so as to attain a concentration of 60 μM, and stored at 37° C. Subsequently, absorbance was measured at 600 nm by means of an automated analyzer (Model 7150; product of Hitachi, Ltd.).

[2] = Stabilization Test 2 for TPM-PS (storage at 25° C. for 10 days, absorbance at 600 nm); format: physicochemical; details: for Variation over 10 days (OD): 600 nm
Method: TPM-PS was dissolved in each of the aqueous solutions described below so as to attain a concentration of 100 μM, and absorbance was measured at 600 nm. After each sample was stored at 25° C. for 10 days, absorbance was again measured at 600 nm.

[3] = 60 μM in 5 mM Citric acid (pH 2.8)
[4] = 60 μM in 5 mM Maleic acid (pH 2.5)
[5] = 60 μM in 5 mM Tartaric acid (pH 2.8)

absorbance at 600 nm, 2-Week storage [1, 3]: 0.057
absorbance at 600 nm, 3-Week storage [1, 3]: 0.080
absorbance at 600 nm, Time 0 [1, 3]: 0.022
absorbance at 600 nm, 2-Week storage [1, 4]: 0.050
absorbance at 600 nm, 3-Week storage [1, 4]: 0.072
absorbance at 600 nm, Time 0 [1, 4]: 0.023
absorbance at 600 nm, 2-Week storage [1, 5]: 0.064
absorbance at 600 nm, 3-Week storage [1, 5]: 0.088
absorbance at 600 nm, Time 0 [1, 5]: 0.024
absorbance at 600 nm, 2-Week storage ([1]; 60 μM in 20 mM PB-K (pH 8)): 0.132
absorbance at 600 nm, 3-Week storage ([1]; 60 μM in 20 mM PB-K (pH 8)): 0.215
absorbance at 600 nm, Time 0 ([1]; 60 μM in 20 mM PB-K (pH 8)): 0.023
nonspecific color development / stability in solution ([1]; aqueous solutions of pH 1 to 5, 37° C.): suppressed effectively
Variation over 10 days (OD) ([2]; 100 μM in 100 mM Citrate buffer, pH 3, 25° C.): −0.01 OD
Variation over 10 days (OD) ([2]; 100 μM in 100 mM Citrate buffer, pH 4, 25° C.): 0.08 OD
Variation over 10 days (OD) ([2]; 100 μM in 100 mM Citrate buffer, pH 5, 25° C.): 0.15 OD
Variation over 10 days (OD) ([2]; 100 μM in 100 mM Glycine-HCl, pH 2, 25° C.): 0.00 OD
Variation over 10 days (OD) ([2]; 100 μM in 100 mM Glycine-HCl, pH 3, 25° C.): −0.01 OD
Variation over 10 days (OD) ([2]; 100 μM in 100 mM Potassium phosphate buffer, pH 6, 25° C.): 0.22 OD
Variation over 10 days (OD) ([2]; 100 μM in 100 mM Potassium phosphate buffer, pH 7, 25° C.): 0.16 OD
Variation over 10 days (OD) ([2]; 100 μM in 100 mM Potassium phosphate buffer, pH 8, 25° C.): 0.17 OD
Variation over 10 days (OD) ([2]; 100 μM in Control (purified water), pH Not regulated, 25° C.): 0.22 OD
Variation over 10 days (OD) ([2]; 100 μM in HCl—KCl, pH 1, 25° C.): −0.01 OD
Variation over 10 days (OD) ([2]; 100 μM in HCl—KCl, pH 2, 25° C.): 0.01 OD
absorbance variation / storage stability ([2]; aqueous solution of pH 1 to 5, 25° C., 10 days): stably stored
Structure (SMILES): O=S(=O)(O)CCCN(CCCS(=O)(=O)O)c1ccc(C(c2ccc(N(CCCS(=O)(=O)O)CCCS(=O)(=O)O)cc2)c2ccc(N(CCCS(=O)(=O)O)CCCS(=O)(=O)O)cc2)cc1 [TPM-PS, N,N,N′,N′,N″,N″-hexa-3-sulfopropyl-4,4′,4″-triaminotriphenylmethane]
